Calls of active or inactive are those of the source. No cut-off for these calls is given here.
Legend:
[1] = Half life in human liver microsomes preincubated for 10 mins followed by NADPH regenerating system addition and measured up to 60 mins by LC-MS/MS analysis; type: ADME, Microsome; conditions: time 10-70 min
[2] = biological target: T1, Amine oxidase [flavin-containing] B (Homo sapiens, UniProt P27338); assay: Inhibition of recombinant N-terminal FLAG-tagged human MAOB expressed in baculovirus infected Sf9 insect cells using luminogenic MAO substrate measured after 1 hr by MAO-glo assay
T1 sequence (P27338 whole entry): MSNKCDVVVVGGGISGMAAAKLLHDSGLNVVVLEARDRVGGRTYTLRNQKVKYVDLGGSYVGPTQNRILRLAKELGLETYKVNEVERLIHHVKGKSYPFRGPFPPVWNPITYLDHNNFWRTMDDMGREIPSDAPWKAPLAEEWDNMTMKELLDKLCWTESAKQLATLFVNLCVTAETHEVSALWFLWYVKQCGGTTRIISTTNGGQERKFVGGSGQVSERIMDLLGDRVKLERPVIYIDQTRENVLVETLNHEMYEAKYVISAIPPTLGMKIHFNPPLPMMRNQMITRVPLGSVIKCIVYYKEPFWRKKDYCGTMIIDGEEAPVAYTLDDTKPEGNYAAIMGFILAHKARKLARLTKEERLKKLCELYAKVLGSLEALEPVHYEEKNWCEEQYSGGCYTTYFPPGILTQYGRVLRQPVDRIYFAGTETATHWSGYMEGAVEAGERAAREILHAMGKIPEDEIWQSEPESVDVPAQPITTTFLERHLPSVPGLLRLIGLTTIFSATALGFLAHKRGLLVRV

[3] = biological target: T2, Lysine-specific histone demethylase 1A (Homo sapiens, UniProt O60341); assay: Inhibition of LSD1 in human MGC-803 cells assessed as increase in H3K9me2 accumulation up to 4 uM measured after 72 hrs by Western blot analysis; type: cell-based; conditions: dose microM <=4, time 72.0 hrs
[4] = biological target: T2, Lysine-specific histone demethylase 1A
Description: Inhibition of human recombinant LSD1 using fluorogenic ADHP based substrate preincubated for 30 mins followed by substrate addition measured after 10 mins by horseradish peroxidase coupled fluorescence assay

MGC-803 [5] = assay: cells; conditions: Homo sapiens, MGC-803, 72 h
Description: Antiproliferative activity against human MGC-803 cells incubated for 72 hrs by CCK8 assay

MGC-803 [6] = assay: Cell cycle arrest in human MGC-803 cells assessed as increase in S phase accumulation at 4 uM after 72 hrs by propidium iodide staining based flow cytometry; type: functional
[7] = Stability in human liver microsomes assessed as parent compound remaining measured 60 mins after mins by LC-MS/MS analysis; type: ADME, Microsome
[8] = biological target: T2, Lysine-specific histone demethylase 1A; assay: Inhibition of LSD1 in human MGC-803 cells assessed as increase in H3K4me2 accumulation measured after 72 hrs by Western blot analysis; type: cell-based
NB-4 = assay: cells; conditions: Homo sapiens, NB-4, 72 h
Description: Antiproliferative activity against human NB-4 cells incubated for 72 hrs by CCK8 assay

MGC-803 [9] = assay: Induction of apoptosis in human MGC-803 cells after 72 hrs by Annexin V-FITC/propidium iodide staining based flow cytometry; type: functional, cell-based
[10] = Intrinsic clearance in human microsomes preincubated for 10 mins followed by NADPH regenerating system addition and measured up to 60 mins by LC-MS/MS analysis; type: ADME, Microsome; conditions: time 10-70 min
MCF7 = assay: cells; conditions: Homo sapiens, MCF7, 72 h
Description: Antiproliferative activity against human MCF7 cells incubated for 72 hrs by CCK8 assay

[11] = biological target: T3, Amine oxidase [flavin-containing] A (Homo sapiens, UniProt P21397); assay: Inhibition of recombinant N-terminal FLAG-tagged human MAOA expressed in baculovirus infected Sf9 insect cells using luminogenic MAO substrate measured after 1 hr by MAO-glo assay
T3 sequence (P21397 whole entry): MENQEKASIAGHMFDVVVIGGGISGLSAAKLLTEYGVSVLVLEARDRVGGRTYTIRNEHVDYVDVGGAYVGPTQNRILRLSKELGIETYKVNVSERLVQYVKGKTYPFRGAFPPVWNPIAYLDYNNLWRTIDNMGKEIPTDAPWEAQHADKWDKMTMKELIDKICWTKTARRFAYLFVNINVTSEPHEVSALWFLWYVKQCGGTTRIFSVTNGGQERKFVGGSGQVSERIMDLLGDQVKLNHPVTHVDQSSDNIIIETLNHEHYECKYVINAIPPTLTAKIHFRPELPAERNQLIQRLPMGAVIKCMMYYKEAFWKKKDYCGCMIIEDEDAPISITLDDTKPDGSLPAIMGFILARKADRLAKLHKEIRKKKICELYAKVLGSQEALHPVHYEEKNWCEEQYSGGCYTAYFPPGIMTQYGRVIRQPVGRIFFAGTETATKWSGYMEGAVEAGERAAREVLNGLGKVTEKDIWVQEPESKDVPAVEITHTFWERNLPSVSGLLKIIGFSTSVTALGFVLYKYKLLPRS

[12] = biological target: T2, Lysine-specific histone demethylase 1A; assay: Reversible inhibition of recombinant N-terminal FLAG-tagged human LSD1 expressed in baculovirus infected Sf9 insect cells at 10 times IC50 using H3K4me2 as substrate preincubated for 30 mins followed by 100 fold dilution and subsequent substrate addition and measured after 30 mins by jump dilution method; conditions: time 60.0 min
MGC-803 [13] = assay: Cell cycle arrest in human MGC-803 cells assessed as decrease in G2/M phase accumulation at 4 uM after 72 hrs by propidium iodide staining based flow cytometry; type: functional
[14] = biological target: T2, Lysine-specific histone demethylase 1A; assay: Non-competitive inhibition of recombinant N-terminal FLAG-tagged human LSD1 expressed in baculovirus infected Sf9 insect cells up to 0.6 uM using varying levels of H3K4me2 as substrate measured after 45 mins by Lineweaver-burk plot analysis; conditions: dose microM <=0.6, time 45.0 min
[15] = biological target: T2, Lysine-specific histone demethylase 1A; assay: Inhibition of LSD1 in human MGC-803 cells assessed as increase in H3K9me1 accumulation up to 4 uM measured after 72 hrs by Western blot analysis; type: cell-based; conditions: dose microM <=4, time 72.0 hrs
THP-1 = assay: cells; conditions: Homo sapiens, THP-1, 72 h
Description: Antiproliferative activity against human THP-1 cells incubated for 72 hrs by CCK8 assay

[16] = Stability in human liver microsomes assessed as parent compound remaining preincubated for 10 mins followed by NADPH regenerating system addition and measured up to 60 mins by LC-MS/MS analysis; type: ADME, Microsome; conditions: time 10-70 min, read-out: Stabilty
A549 = assay: cells; conditions: Homo sapiens, A549, 72 h
Description: Antiproliferative activity against human A549 cells incubated for 72 hrs by CCK8 assay

MGC-803 [17] = assay: Induction of apoptosis in human MGC-803 cells assessed as apoptotic rate at 4 uM after 72 hrs by Annexin V-FITC/propidium iodide staining based flow cytometry relative to control; type: functional
PC-3 = assay: cells; conditions: Homo sapiens, PC-3, 72 h
Description: Antiproliferative activity against human PC-3 cells incubated for 72 hrs by CCK8 assay

[18] = biological target: T2, Lysine-specific histone demethylase 1A; assay: Inhibition of LSD1 (unknown origin) by TR-FRET assay
MGC-803 [19] = assay: Antitumor activity against human MGC-803 cells xenografted in Balb/c nude mouse assessed as reduction in tumor volume at 100 mg/kg, po administered once daily via gavage for 21 days measured post last dose relative to control; type: functional; set-up: scale not given: the % may be the effect or the level left; conditions: time 21 day
MGC-803 [20] = assay: Antitumor activity against human MGC-803 cells xenografted in Balb/c nude mouse assessed as reduction in tumor weight at 100 mg/kg, po administered once daily via gavage for 21 days measured post last dose relative to control; type: functional; set-up: scale not given: the % may be the effect or the level left; conditions: time 21 day
CYP3A4 = CYP3A4 (Homo sapiens, UniProt P08684); assay: Inhibition of CYP3A4 in human liver microsomes at 10 uM using CYP substrate preincubated for 10 mins followed by NADPH generating system addition and measured after 10 mins by LC-MS/MS analysis relative to control; type: ADME; conditions: time 20 min
Chain of CYP3A4 (P08684 whole entry): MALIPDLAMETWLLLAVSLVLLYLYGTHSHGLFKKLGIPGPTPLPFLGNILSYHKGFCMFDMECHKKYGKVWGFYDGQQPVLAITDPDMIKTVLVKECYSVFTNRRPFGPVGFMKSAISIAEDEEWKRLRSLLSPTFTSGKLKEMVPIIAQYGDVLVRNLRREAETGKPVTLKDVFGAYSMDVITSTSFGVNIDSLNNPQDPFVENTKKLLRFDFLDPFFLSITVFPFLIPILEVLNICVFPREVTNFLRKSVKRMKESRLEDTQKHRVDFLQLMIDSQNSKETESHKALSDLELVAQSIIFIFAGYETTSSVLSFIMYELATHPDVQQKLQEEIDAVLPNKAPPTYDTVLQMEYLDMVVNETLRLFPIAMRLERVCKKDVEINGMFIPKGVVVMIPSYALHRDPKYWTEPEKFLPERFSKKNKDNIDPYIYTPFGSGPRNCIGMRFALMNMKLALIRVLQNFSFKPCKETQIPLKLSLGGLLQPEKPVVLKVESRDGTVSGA

CYP1A2 = biological target: T4, CYP1A2 (Homo sapiens, UniProt P05177); assay: Inhibition of CYP1A2 in human liver microsomes at 10 uM using CYP substrate preincubated for 10 mins followed by NADPH generating system addition and measured after 10 mins by LC-MS/MS analysis relative to control; type: ADME; conditions: time 20 min
T4 sequence (P05177 whole entry): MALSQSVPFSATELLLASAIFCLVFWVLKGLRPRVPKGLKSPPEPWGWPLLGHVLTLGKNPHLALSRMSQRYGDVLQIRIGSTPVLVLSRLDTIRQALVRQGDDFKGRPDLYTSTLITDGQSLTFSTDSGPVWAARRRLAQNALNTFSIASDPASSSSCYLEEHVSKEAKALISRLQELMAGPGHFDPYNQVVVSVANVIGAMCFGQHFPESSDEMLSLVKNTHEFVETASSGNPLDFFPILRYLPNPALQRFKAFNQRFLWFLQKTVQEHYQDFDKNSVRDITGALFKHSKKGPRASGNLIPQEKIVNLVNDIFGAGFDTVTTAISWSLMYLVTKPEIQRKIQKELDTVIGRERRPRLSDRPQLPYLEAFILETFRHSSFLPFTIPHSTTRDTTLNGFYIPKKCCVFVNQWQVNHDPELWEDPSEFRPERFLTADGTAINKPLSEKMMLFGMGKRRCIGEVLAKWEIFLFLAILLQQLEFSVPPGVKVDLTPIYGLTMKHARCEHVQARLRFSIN

CYP2D6 = CYP2D6 (Homo sapiens, UniProt P10635); assay: Inhibition of CYP2D6 in human liver microsomes at 10 uM using CYP substrate preincubated for 10 mins followed by NADPH generating system addition and measured after 10 mins by LC-MS/MS analysis relative to control; type: ADME; conditions: time 20 min
Chain of CYP2D6 (P10635 whole entry): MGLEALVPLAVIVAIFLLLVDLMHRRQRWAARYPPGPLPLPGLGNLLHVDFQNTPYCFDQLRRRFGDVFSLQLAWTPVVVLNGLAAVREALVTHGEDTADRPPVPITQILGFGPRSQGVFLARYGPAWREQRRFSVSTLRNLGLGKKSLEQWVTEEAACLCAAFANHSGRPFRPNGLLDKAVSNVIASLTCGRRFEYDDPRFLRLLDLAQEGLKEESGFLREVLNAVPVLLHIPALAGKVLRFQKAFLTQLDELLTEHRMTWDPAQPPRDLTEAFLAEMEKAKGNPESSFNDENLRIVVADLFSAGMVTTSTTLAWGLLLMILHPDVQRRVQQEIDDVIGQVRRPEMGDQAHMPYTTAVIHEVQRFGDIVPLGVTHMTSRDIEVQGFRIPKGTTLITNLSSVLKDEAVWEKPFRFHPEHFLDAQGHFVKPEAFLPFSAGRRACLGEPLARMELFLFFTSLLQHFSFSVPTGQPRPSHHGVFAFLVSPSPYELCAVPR

CYP2C9 = CYP2C9 (Homo sapiens, UniProt P11712); assay: Inhibition of CYP2C9 in human liver microsomes at 10 uM using CYP substrate preincubated for 10 mins followed by NADPH generating system addition and measured after 10 mins by LC-MS/MS analysis relative to control; type: ADME; conditions: time 20 min
Chain of CYP2C9 (P11712 whole entry): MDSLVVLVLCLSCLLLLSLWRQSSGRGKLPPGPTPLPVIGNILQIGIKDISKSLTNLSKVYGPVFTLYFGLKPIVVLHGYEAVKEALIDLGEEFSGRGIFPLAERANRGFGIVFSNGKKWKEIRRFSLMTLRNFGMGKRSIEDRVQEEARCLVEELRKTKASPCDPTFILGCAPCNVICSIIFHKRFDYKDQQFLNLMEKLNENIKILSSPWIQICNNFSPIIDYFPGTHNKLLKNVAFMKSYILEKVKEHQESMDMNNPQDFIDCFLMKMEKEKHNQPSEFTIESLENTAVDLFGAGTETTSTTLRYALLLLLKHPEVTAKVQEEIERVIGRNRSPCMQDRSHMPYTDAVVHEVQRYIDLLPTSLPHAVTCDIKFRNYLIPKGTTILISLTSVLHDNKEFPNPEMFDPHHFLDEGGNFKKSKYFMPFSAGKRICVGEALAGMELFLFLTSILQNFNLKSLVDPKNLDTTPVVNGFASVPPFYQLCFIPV

[21] = Toxicity in human MGC-803 cells xenografted Balb/c nude mouse assessed as body weight loss at 50 to 100 mg/kg, po administered once daily via gavage for 21 days measured at 3 days interval during compound dosing; type: organism-based; conditions: in vivo, 504 h, dose 50-100 mg/kg, time 21 day
CYP2C19 = CYP2C19 (Homo sapiens, UniProt P33261); assay: Inhibition of CYP2C19 in human liver microsomes at 10 uM using CYP substrate preincubated for 10 mins followed by NADPH generating system addition and measured after 10 mins by LC-MS/MS analysis relative to control; type: ADME; conditions: time 20 min
Chain of CYP2C19 (P33261 whole entry): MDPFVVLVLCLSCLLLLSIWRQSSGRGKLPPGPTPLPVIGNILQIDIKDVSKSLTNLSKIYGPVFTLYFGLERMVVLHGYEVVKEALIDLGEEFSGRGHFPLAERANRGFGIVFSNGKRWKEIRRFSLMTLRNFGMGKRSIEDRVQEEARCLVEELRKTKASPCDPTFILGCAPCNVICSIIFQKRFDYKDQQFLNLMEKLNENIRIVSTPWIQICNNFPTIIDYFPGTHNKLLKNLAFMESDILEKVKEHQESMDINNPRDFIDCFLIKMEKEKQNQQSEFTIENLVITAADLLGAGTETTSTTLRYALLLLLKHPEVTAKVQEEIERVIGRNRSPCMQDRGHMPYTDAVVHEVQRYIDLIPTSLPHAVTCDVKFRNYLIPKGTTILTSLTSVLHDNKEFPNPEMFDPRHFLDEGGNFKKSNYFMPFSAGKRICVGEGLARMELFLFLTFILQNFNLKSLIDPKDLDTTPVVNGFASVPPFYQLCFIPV

Cn1c(C(=O)Nc2cccc3c2N(Cc2ccc(OC4CCNCC4)cc2)CCC3)cc2ccccc21
half-life [1]: 27.7 min | IC50 [2]: > 50 µM | inhibition [3]: Active | IC50 [4]: 0.05 nM | IC50 (MGC-803 [5]): 1.13 µM | Activity (MGC-803 [6]): Active | remaining at 1 h ([7]; liver microsomes, read-out: Stabilty): 101% | inhibition [8]: Dose-dependent effect | IC50 (NB-4): 9.53 µM | Activity (MGC-803 [9]): Dose-dependent effect | microsomal CLint [10]: 50.1 µL/min/mg | IC50 (MCF7): 5.83 µM | IC50 [11]: > 50 µM | inhibition [12]: Active | Activity (MGC-803 [13]): Active | inhibition [14]: Active | inhibition [15]: Active | IC50 (THP-1): 9.68 µM | remaining at 1 h [16]: 20.3% | IC50 (A549): 5.97 µM | Activity (MGC-803 [17]): 22.79% | IC50 (PC-3): 2.86 µM

CCOCc1cccc(NC(=O)c2cc3sccc3n2C)c1COc1ccc(OC[C@H]2CCNC2)cc1
IC50 [4]: 0.1 nM | IC50 [18]: 0.0078 µM

Cn1c(C(=O)Nc2cccc3c2N(Cc2ccc(OC4CCNCC4)cc2)CCC3)cc2cc(F)ccc21
Activity (MGC-803 [19]): 28.6% | half-life [1]: 61.9 min | IC50 [2]: > 50 µM | Activity (MGC-803 [20]): 28.1% | inhibition at 10 min, 10 µM (CYP3A4): 40.1% | IC50 [4]: 0.54 nM | IC50 (MGC-803 [5]): 1.75 µM | Activity (MGC-803 [6]): Active | inhibition at 10 min, 10 µM (CYP1A2): 4.6% | Stabilty ([7]; microsomes, 1 h): 122.6% | inhibition [8]: Dose-dependent effect | IC50 (NB-4): 1.13 µM | Activity (MGC-803 [9]): Dose-dependent effect | inhibition at 10 min, 10 µM (CYP2D6): 6.1% | microsomal CLint [10]: 22.4 µL/min/mg | IC50 (MCF7): 9.49 µM | IC50 [11]: > 50 µM | inhibition at 10 min, 10 µM (CYP2C9): 0% | Activity [21]: Non-Toxic | Activity (MGC-803 [13]): Active | IC50 (THP-1): 9.63 µM | remaining at 1 h [16]: 57.5% | inhibition at 10 min, 10 µM (CYP2C19): 16.1% | IC50 (A549): 3.01 µM | Activity (MGC-803 [17]): 24.86% | IC50 (PC-3): 4.29 µM
